Columns and labels:
[1] = LD50, orally, mouse (acute toxicity); conditions: in vivo, po
[2] = tested on: edema triggered by injecting a carrageenin suspension into the sole of the foot of the rat; assay: carrageenin-induced edema test (Winter and Risley), anti-inflammatory effect; type: in vivo; conditions: po, orally, read-out: AD30 orally (active dose 30, inhibiting edema development by 30%)
Description: (§1) The anti-inflammatory effect of the new drugs was determined in two tests.
(a) In the carrageenin-induced edema test according to Winter, C. A. and Risley, E. A. (Proc. Soc. Exp. Biol. Med. 1962, 111, 544-547) the protection conferred by the drug administered orally to the rat against an edema triggered by injecting a carrageenin suspension into the sole of the foot of the rat was investigated. The table below gives the "active dose 30" (inhibiting edema development by 30%) of both compounds.

[3] = tested on: erythema (produced by exposure to ultraviolet radiation) of the shaved back of the guinea pig; assay: UV erythema test on the guinea pig (Winder et al.), anti-inflammatory effect; type: in vivo, albino guinea pig; conditions: Cavia porcellus, po, orally, read-out: Active Dose 50 (decreased erythema by 50%)
Description: as §1
(b) In the UV erythema test on the guinea pig (Winder, C. V., Wax, J., Burr, V., Been, M., Rosiere, C. E., Arch. Int. Pharmacodyn., 116, 261, 1958) the protective activity against precocious inflammation in the albino guinea pig was investigated. A determination was made of the active dose 50 which, administered orally to the animal, decreased erythema (produced by exposure to ultraviolet radiation) of the shaved back of the guinea pig by 50%.

[4] = tested on: painful contractures, caused by intraperitoneal injection of a dilute acetic acid solution; assay: analgesic activity in the mouse by the method of Koster (acetic acid contractures); type: in vivo; conditions: po, orally, read-out: Active Dose 50 (diminished painful contractures by 50%)
Description: The analgesic activity can be determined in the mouse by the method of Koster, R., Anderson, M., Debeer, E. J., Federation Proc., 1959, 18, 412. A determination was made of the active dose 50 of the drug which, administered orally, diminished painful contractures, caused by intraperitoneal injection of a dilute acetic acid solution, by 50%.

SMILES	LD50 [1] [mg/kg]	ED30 [2] [mg/kg]	ED50 [3] [mg/kg]	ED50 [4] [mg/kg]
CC(C(=O)O)c1ccc(-n2cccc2)c(N)c1 (centres unmarked) [Compound B, 2-(3'-amino-4'-[1"-pyrrolyl]phenyl) propionic acid]	3000	12	4.7	19
CC(C(=O)O)c1ccc(-n2cccc2)c([N+](=O)[O-])c1 (centres unmarked) [Compound A, 2-(3'-nitro-4'-[1"-pyrrolyl]phenyl) propionic acid]	3200	12	18.4	50

Source: patent publication US4190665A, “Substituted arylaliphatic acids” (Lipha, Lyonnaise Industrielle Pharmaceutique, priority 1976, dated 1980)
